Measured values published in paper PMC2628638, “Catalytic inhibition of topoisomerase II by a novel rationally designed ATP-competitive purine analogue” (BMC Chemical Biology, 2009).

Experiments:
topoisomerase II beta = target: T1, topoisomerase II beta (Homo sapiens, UniProt Q02880); assay: Affinity precipitation with biotinylated purine analogue 2 from HL-60 nuclear extracts; type: binding; conditions: 1 μM biotinylated analogue 2; competitor in excess (10 μM), QAP 1 also at equimolar concentration
T1 construct: endogenous in cells; host or cells: HL-60 nuclear extract
Method: Topoisomerase II α and β were affinity precipitated with biotinylated inhibitor as follows. Exponentially growing HL-60 cells were collected on ice and incubated with hypotonic buffer (10 mM HEPES pH 7.5, 1.5 mM MgCl2, 10 mM KCl, 0.5 mM DTT, 0.5 mM PMSF, 1× protease inhibitor cocktail (Complete Mini, Roche Diagnostics GmbH)) for 15 minutes, then 0.6% v/v NP-40 was added and cells were disrupted using a Dounce homogenizer. Lysates were transferred to 1.5 ml Protein LoBind Eppendorf tubes and nuclei were collected after centrifugation at 8000 rpm for 10 minutes and washed twice with hypotonic buffer. To extract and release chromatin associated topoisomerase II nuclei were incubated for 30 minutes in DNAse buffer (20 mM Tris HCl pH 7.5, 5 mM MgCl2, 1 mM CaCl2, 25 mM NaCl, 0.5 mM EDTA, 1% NP-40, 1 mM DTT, 1 × protease inhibitor cocktail, 0.1 mM PMSF) containing 40 U DNAse I (Roche Diagnostics GmbH) followed by addition of twice concentrated nuclear extraction buffer (20 mM HEPES pH 7.5, 3 mM MgCl2, 20 mM KCl, 50 mM β-glycerophosphate, 840 mM NaCl, 1 mM EDTA, 50 mM PNPP, 1 mM DTT, 1 mM PMSF) and rotation for 1 h in the coldroom. The soluble fraction was obtained following centrifugation at 13000 rpm for 15 minutes. 25 μg nuclear extract were used for the affinity precipitation. The salt concentration was adjusted to 150 mM with nuclear extraction buffer (without NaCl) and the sample volume was toped off to 200 μl with precipitation buffer (50 mM HEPES pH 7.4, 150 mM NaCl, 25 mM β-glycerophosphate, 25 mM NaF, 5 mM EGTA, 1 mM EDTA, 15 mM PPI, 1 mM PMSF). Compounds were preincubated for 30 minutes prior addition of biotinylated purine analogue 2 for 2 h. Streptavidin agarose beads (Novagen, 69203) were washed twice with PBS, blocked for 30 minutes with PBS containing 1% BSA, washed twice with PBS and finally with precipitation buffer. 40 μl equilibrated streptavidin agarose beads were added to the sample and incubation was continued for 1 h. Beads were pelleted by centrifugation at 7000 rpm for 5 minutes and washed thrice with precipitation buffer. During the last wash the beads were transferred to a new tube and the bound fraction was released by boiling for 5 minutes in Laemmli sample buffer. Topoisomerase II α and β were detected by Western blot as described below.

HL-60 cells [1] = assay: Chromosome segregation assay (chromosome spreads); type: cell-based; conditions: 10 μM with 1 mM caffeine for 2 hours after 6 hours release
Method: HL-60 cells were treated overnight for 16 hours with 2 μg/ml aphidicolin (Sigma-Aldrich corporation, St. Louis, MO) and released by washing twice PBS and resuspending into fresh medium. After 6 hours release the cells were treated with 1 mM caffeine (Lancaster Synthesis, Heysham, Lancashire, UK) and with catalytic topoisomerase II inhibitor or vehicle for 2 hours. Cells were washed once with PBS and incubated with 56 mM KCl hypotonic solution for 30 minutes. Cells were pelleted and carefully resuspended in Carnoy's fixative. Cells were pelleted as above, supernatant was removed and cells were resuspended again in 2 ml fixative. Chromosome spreads were prepared by dropping 50 μl cell suspension onto microscopy slides. The slides were allowed to dry and then stained for 10 seconds in Hoechst 33342 dye (Molecular Probes, Eugene, Oregon, prepared 1:1000 in PBS from 10 mg/ml stock). After drying, mounting media (Vectashield®, Vector Laboratories, Burlingame, CA) and a cover slip were added. Samples were observed using an immersion oil lens (100 ×, Nikon, Plan Apo VC) by fluorescence microscopy (Nikon Eclipse, E600) in the DAPI channel. Images were acquired using analySIS® software (Soft Imaging System GmbH, Münster, Germany). Representative images were converted to grayscale, inverted and contrast adjusted with Adobe Photoshop. Mitotic cells were categorized as described.

HL-60 cells [2] = assay: Proliferation assay over 72 hours; type: cell-based; conditions: Homo sapiens, read-out: half-maximal growth inhibitory concentration (GI50)

T1 sequence (Q02880 whole entry): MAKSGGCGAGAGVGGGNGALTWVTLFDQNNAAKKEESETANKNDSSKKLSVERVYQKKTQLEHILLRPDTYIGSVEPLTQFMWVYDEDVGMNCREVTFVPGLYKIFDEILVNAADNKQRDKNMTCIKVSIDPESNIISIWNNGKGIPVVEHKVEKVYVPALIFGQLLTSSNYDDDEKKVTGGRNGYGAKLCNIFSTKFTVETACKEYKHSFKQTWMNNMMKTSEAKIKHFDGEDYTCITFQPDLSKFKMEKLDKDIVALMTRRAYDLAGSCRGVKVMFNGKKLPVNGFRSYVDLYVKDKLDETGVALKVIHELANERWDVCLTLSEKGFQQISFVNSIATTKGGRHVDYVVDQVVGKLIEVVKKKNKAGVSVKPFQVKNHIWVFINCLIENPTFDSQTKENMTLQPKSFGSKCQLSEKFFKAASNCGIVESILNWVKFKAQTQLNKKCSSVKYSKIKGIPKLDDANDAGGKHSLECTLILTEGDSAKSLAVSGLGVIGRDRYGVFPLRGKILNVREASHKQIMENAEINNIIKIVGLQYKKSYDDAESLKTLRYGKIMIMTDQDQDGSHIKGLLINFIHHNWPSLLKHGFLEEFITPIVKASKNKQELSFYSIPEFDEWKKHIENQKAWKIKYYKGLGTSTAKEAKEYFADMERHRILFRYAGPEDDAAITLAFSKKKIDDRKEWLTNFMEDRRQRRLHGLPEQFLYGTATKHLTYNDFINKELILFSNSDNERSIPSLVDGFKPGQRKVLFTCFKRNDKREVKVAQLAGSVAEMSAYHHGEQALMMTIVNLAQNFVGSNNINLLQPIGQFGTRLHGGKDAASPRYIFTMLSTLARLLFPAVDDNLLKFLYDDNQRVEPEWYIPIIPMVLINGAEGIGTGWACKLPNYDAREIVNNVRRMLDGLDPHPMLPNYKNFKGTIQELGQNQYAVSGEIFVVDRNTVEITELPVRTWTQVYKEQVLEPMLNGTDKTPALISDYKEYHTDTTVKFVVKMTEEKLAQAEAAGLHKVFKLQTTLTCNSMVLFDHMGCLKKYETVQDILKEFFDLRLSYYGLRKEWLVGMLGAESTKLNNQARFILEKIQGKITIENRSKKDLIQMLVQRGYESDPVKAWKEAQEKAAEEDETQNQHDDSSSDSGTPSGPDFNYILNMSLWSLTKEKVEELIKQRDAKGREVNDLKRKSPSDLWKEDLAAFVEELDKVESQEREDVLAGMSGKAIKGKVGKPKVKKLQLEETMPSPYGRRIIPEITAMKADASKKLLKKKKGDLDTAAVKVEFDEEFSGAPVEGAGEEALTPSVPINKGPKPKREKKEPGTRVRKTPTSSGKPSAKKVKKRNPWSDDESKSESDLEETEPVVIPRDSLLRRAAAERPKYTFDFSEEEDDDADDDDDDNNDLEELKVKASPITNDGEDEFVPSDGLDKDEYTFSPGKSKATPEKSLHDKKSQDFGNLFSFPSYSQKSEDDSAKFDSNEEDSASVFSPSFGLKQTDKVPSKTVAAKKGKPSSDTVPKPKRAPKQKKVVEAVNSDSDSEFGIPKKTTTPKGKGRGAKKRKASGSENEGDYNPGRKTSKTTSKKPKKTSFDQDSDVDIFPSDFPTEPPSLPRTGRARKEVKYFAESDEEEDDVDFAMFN

CCc1nc2nc(Nc3ccc4nc(OCCN5CCOCC5)ccc4c3)nc(NC(C)(C)C)c2[nH]1 [QAP 1]
competition of the interaction of biotinylated purine analogue 2 with topoisomerase II beta (topoisomerase II beta): abolished | chromosome segregation at mitosis (HL-60 cells [1]): mitosis was also severely perturbed during anaphase | GI50 (HL-60 cells [2]): 8 µM
